Where two headings read alike, the source gives them in different places.
Key:
[1] = tested on: A375-NRAS^Q61K cells; assay: CTGlo Cell Viability Assay, A375-NRAS^Q61K (A375.11) cells, 96 hours; assay type: cell-based, human; details: A375.11 (A375-NRAS^Q61K) cells; for CTGlo A375.11 96 hours Emax / Emax: lowest % viability achieved
Method: Compounds of this invention were tested for their effect on the viability of A375-NRAS^Q61K cells by quantification of ATP using the CellTiter-Glo® 2.0 Cell Viability Assay (Catalog No. G9243, Promega, Madison, WI, USA). This assay produces a luminescent signal in the presence of ATP, which is indicative of metabolically active cells, making the luminescence readout proportional to the number of viable cells.
A375-NRAS^Q61K cells (harboring BRAF homozygous V600E mutation and NRAS homozygous Q61K mutation) were purchased from ATCC (Catalog No. CRL-1619IG-2, Manassas, VA, USA). A375-NRAS^Q61K cells (also referred to here as A375.11) were maintained at 37° C. in an atmosphere of 5% CO2 in Dulbecco's modified Eagle Medium (DMEM) with high glucose (Catalog No. 11965092), supplemented with 10% fetal bovine serum (FBS; Catalog No. 10437036), and 10 mM HEPES (Catalog No. 15630130), all obtained from Thermofisher Scientific (Waltham, MA, USA). Cell culture flasks and 384-well microplates were acquired from VWR (Radnor, PA, USA).
Test compounds were prepared by dissolving neat compounds in DMSO (Catalog No. D8418, Sigma-Aldrich, Inc., St. Louis, MO, USA) to generate 10 mM stock solutions, which were serially diluted (half log) in DMSO to generate an 11-point dose series (1000× final treatment concentration) in a 384-Well Low Dead Volume Microplate (Catalog No. LP-0200, Labcyte, San Jose, CA, USA). Using the Echo 550 Acoustic Liquid Handler (Labcyte), 50 nL of serially diluted compound solutions were dispensed in duplicate to 384-well TC-treated microplates (Catalog No. 3571, Corning, Glendale, CA, USA) and 50 nL of DMSO was dispensed to control wells. A375-NRAS^Q61K cells were resuspended in growth media and added to 384-well plates containing a […] of compounds in duplicate (maximum 10 μM concentration for final treatment) at a density of 250 cells/well in 50 μl. Cells were also plated to a 384-well plate with no compound treatment, to which CellTiter-Glo® reagent was added and luminescence was read right after plating to act as a baseline signal at time of plating (To). Plates treated with compound were then spun briefly, and cells were incubated with compound at 37° C. for 96 hours.
After 96 hours compound treatment, CellTiter-Glo® reagent was added to the cells at 25 μl per well and luminescence was read out on the PHERAstar plate reader (BMG Labtech, Ortenberg, Germany). Cells treated with DMSO only (no test compound treatment) were used as the negative control (N). DMSO treated cells with no CellTiter-Glo® reagent added were used as the background or positive control (P). Viability was determined by subtracting out the average background signal (P) and normalized to the average untreated signal (N) set at 100%.
Data were analyzed with a 4-parameter logistic fit to generate sigmoidal dose-response curves. The half-maximal inhibition of cell growth (GI50) is the concentration at which the fitted curve crosses 50%. The Emax, or maximum effect of each compound, represents the lowest % viability achieved following compound treatment.

[2] = target: T1, BRAF V600E (Homo sapiens, UniProt P15056+Q96SW2, V600E); assay: BRAF V600E HiBiT Degradation Assay; assay type: cell-based; details: for Emax: read-out: HiBiT-Degradation A375.10 BRAF 2 hours Emax
T1 construct: knock-in of the HiBiT tag to the endogenous BRAF V600E locus; host or cells: A375.10 (A375 clonal line, CRISPR HiBiT knock-in at the endogenous BRAF V600E locus)
T1 sequence (P15056 whole entry V600E): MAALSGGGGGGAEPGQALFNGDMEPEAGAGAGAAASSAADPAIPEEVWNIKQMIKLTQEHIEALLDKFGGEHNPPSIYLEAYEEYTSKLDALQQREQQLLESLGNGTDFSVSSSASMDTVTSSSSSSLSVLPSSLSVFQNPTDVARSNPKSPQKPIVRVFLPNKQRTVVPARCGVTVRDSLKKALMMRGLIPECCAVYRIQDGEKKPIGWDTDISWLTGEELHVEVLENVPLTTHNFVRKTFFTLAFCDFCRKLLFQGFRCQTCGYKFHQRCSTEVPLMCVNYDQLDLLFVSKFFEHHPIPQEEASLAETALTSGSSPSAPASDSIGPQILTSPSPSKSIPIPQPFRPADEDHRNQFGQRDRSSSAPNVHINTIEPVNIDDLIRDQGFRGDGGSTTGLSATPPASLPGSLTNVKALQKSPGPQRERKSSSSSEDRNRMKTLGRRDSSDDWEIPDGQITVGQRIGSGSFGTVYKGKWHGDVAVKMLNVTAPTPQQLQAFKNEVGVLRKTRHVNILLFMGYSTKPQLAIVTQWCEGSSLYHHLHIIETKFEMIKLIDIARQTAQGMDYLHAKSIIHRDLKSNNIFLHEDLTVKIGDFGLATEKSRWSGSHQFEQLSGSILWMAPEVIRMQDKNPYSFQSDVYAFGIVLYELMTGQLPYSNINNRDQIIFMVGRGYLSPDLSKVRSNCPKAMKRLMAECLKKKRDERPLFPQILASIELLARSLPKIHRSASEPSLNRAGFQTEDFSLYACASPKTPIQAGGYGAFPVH
T1 sequence (Q96SW2 whole entry): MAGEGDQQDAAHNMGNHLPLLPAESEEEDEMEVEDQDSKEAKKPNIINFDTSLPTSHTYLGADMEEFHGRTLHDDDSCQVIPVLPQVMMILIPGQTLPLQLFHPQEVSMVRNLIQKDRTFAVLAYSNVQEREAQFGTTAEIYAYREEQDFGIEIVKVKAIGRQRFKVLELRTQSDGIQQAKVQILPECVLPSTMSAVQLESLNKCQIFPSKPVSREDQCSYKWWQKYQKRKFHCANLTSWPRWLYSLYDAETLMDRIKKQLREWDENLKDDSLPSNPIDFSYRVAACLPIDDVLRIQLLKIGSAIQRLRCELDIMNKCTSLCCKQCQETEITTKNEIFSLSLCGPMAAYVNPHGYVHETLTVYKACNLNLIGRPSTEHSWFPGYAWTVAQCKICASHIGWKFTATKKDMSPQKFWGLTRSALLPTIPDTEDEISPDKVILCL
T1 sequence (Q16531 whole entry partner): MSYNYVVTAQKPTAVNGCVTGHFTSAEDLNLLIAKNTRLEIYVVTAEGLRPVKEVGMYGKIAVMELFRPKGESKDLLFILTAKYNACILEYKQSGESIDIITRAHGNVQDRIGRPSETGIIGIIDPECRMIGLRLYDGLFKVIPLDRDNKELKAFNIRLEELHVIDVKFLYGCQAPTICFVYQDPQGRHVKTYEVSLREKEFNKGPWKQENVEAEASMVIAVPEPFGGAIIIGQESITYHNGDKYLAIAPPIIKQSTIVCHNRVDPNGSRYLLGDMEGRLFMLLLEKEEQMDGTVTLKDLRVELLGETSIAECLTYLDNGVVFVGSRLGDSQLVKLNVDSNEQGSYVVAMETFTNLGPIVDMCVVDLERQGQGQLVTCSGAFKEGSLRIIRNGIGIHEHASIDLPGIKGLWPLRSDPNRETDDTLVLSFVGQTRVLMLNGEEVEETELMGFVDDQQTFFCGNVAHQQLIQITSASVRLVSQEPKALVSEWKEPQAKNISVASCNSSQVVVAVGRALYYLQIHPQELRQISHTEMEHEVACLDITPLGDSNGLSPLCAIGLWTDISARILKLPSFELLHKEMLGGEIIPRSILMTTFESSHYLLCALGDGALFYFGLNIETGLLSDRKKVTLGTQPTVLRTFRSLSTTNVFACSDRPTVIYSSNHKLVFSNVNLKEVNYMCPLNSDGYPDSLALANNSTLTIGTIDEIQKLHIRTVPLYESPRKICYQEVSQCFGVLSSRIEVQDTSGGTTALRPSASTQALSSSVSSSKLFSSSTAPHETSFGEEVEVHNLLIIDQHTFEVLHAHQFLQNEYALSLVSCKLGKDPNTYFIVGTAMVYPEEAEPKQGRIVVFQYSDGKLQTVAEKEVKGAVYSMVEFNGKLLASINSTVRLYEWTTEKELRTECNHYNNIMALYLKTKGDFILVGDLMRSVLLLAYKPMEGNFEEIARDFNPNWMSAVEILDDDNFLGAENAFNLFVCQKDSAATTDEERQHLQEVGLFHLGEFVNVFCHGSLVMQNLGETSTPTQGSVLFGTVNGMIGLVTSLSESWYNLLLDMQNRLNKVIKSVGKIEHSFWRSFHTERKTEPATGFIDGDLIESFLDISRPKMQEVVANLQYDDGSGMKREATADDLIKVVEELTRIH
Method: Compounds of this invention were tested for degradation of mutant BRAF V600E using the HiBiT assay, a luminescence-based assay for quantification of cellular protein levels using the Nano-Glo® HiBiT Lytic Detection System (Catalog No. N3050, Promega, Madison, WI USA). This assay utilizes the HiBiT tag on a protein of interest, which creates a luminescent signal in the presence of a complementing peptide and its substrate, the quantification of which is proportional to the amount of HiBiT-tagged protein in the cell.
The cell line A375, which is homozygous for the BRAF V600E mutation, was purchased from ATCC (Catalog No. CRL-1619, Manassas, VA, USA). A375 cells were engineered to express HiBiT tagged BRAF V600E by CRISPR knock-in of the HiBiT tag to the endogenous BRAF V600E locus, followed by selection of a clonal population containing the appropriate knock-in (referred to here as cell line A375.10). A375.10 cells were maintained at 37° C. in an atmosphere of 5% CO2 in Dulbecco's modified Eagle Medium (DMEM) with high glucose (Catalog No. 11965092), supplemented with 10% fetal bovine serum (FBS; Catalog No. 10437036), and 10 mM HEPES (Catalog No. 15630130), all obtained from Thermofisher Scientific (Waltham, MA, USA). Cell culture flasks and 384-well microplates were acquired from VWR (Radnor, PA, USA).
Test compounds were prepared by dissolving neat compounds in DMSO (Catalog No. D8418, Sigma-Aldrich, Inc., St. Louis, MO, USA) to generate 10 mM stock solutions, which were serially diluted (half log) in DMSO to generate an 11-point dose series (1000× final treatment concentration) in a 384-Well Low Dead Volume Microplate (Catalog No. LP-0200, Labcyte, San Jose, CA, USA). Using the Echo 550 Acoustic Liquid Handler (Labcyte), 30 nL of serially diluted compound solutions were dispensed in duplicate to 384-well TC-treated microplates (Catalog No. 3571, Corning, Glendale, CA, USA) and 30 nL of DMSO was dispensed to control wells. A375.10 cells resuspended in growth media without phenol red (Catalog No. 21063-029, Thermofisher Scientific) were then added to 384-well plates containing the 11-point dose series of compounds in duplicate (maximum 10 μM concentration for final treatment) at a density of 12,000 cells/well in 30 μl. Plates were then spun briefly, and cells were incubated with compound at 37° C. for 2 hours, 6 hours, or 24 hours.
Following the appropriate treatment time, Nano-Glo® HiBiT Lytic Assay reagents were added to the cells per the manufacturer's instructions by adding 30 μl of reagent per well, and the luminescence signal was acquired by plate reader. Cells treated with DMSO only (no test compound treatment) were used as the negative control (N). Media only (no cells added) with Nano-Glo reagent addition was used as the background or positive control (P). The percent response of compound treated samples were calculated by subtracting out the background signal (P) and normalizing to the DMSO control (N) as follows.
% Response=100×(Treated Signal−Average (P))/(Average (N)−Average (P)).
Data were analyzed with a 4-parameter logistic fit to generate sigmoidal dose-response curves. The DC50 is the concentration of compound at which 50% of the cellular BRAF V600E has been degraded. The Emax, or maximum effect of each compound, represents the amount of residual protein remaining in the cell following compound treatment. The IP, or inflection point of the dose-response curve, is the concentration of compound at which 50% of the observed degradation response is achieved.
The experiment was conducted at least once for each compound. If the experiment was conducted multiple times, the data shown in the table is the average of the two or more experiments.

[3] = A375.10 cells, BRAF V600E, 2 hours, inflection point, read-out: HiBiT-Degradation A375.10 BRAF 2 hours IP
[4] = A375.10 cells, BRAF V600E, 2 hours, read-out: HiBiT-Degradation A375.10 BRAF 2 hours DC50
[5] = A375.10 cells, BRAF V600E, 2 hours, residual protein remaining

GI50 [1] | DC50 [2, 3] | DC50 [2, 4] | HiBiT-Degradation A375.10 BRAF 2 hours Emax [2, 5] | GI50 ([1]; Homo sapiens, 96 h) | Emax [2, 5] | HiBiT-Degradation A375.10 BRAF 2 hours Emax [2] | DC50 ([2]; A375.10 cells, BRAF V600E, 6 hours, inflection point, read-out: HiBiT-Degradation A375.10 BRAF 6 hours IP) | DC50 ([2]; A375.10 cells, BRAF V600E, 6 hours, read-out: HiBiT-Degradation A375.10 BRAF 6 hours DC50) | HiBiT-Degradation A375.10 BRAF 6 hours Emax ([2]; A375.10 cells, BRAF V600E, 6 hours, residual protein remaining) | HiBiT-Degradation A375.10 BRAF 24 hours Emax ([2]; A375.10 cells, HiBiT, BRAF V600E, 24 hours) | DC50 ([2]; A375.10 cells, HiBiT, BRAF V600E, 24 hours, read-out: HiBiT-Degradation A375.10 BRAF 24 hours DC50) | DC50 ([2]; A375.10 cells, HiBiT, BRAF V600E, 24 hours, read-out: HiBiT-Degradation A375.10 BRAF 24 hours IP) | SMILES | CTGlo A375.11 96 hours Emax [1] | Emax ([1]; Homo sapiens, 96 h)
> 10000 nM | < 1000 nM | < 1000 nM | *** (<=50%) |  |  |  |  |  |  |  |  |  | CCN(C)S(=O)(=O)Nc1ccc(F)c(Oc2ccc3ncn(C4CCC5(CC4)CCN(C4CCC(c6cc7c(cc6F)c(N6CCC(=O)NC6=O)nn7C)CC4)CC5)c(=O)c3c2)c1C#N (single isomer, unassigned) [Compound 13, 9-[6-[2-cyano-3-[[ethyl(methyl)sulfamoyl]amino]-6-fluoro-phenoxy]-4-oxo-quinazolin-3-yl]-3-[4-[3-(2,4-dioxohexahydropyriimidin-1-yl)-5-fluoro-1-methyl-indazol-6-yl]cyclohexyl]-3-azaspiro[5.5]undecane] | ** (<90% and >50%) | 
 | < 1000 nM | < 1000 nM |  | > 10000 nM | 50 to 90% |  |  |  |  |  |  |  | CCN(C)S(=O)(=O)Nc1ccc(F)c(Oc2ccc3ncn([C@H]4C[C@@H]5CN(C6CCC(c7cc8c(cc7F)c(N7CCC(=O)NC7=O)nn8C)CC6)C[C@@H]5C4)c(=O)c3c2)c1C#N (single isomer, unassigned) [Compound 15] |  | 50 to 90%
1000 to 10000 nM | < 1000 nM | < 1000 nM |  |  | 50 to 90% |  |  |  |  |  |  |  | CCN(C)S(=O)(=O)Nc1ccc(F)c(Oc2ccc3ncn([C@@H]4C[C@@H]5CN(C6CCC(c7cc8c(cc7F)c(N7CCC(=O)NC7=O)nn8C)CC6)C[C@@H]5C4)c(=O)c3c2)c1C#N (single isomer, unassigned) [Compound 16] |  | < 50%
> 10000 nM | < 1000 nM | < 1000 nM | ** (<90% and >50%) |  |  |  |  |  |  |  |  |  | CCN(C)S(=O)(=O)Nc1ccc(F)c(Oc2ccc3ncn([C@@H]4C[C@@H]5CN(C6CCC(c7cc8c(cc7F)c(N7CCC(=O)NC7=O)nn8C)CC6)C[C@@H]5C4)c(=O)c3c2)c1C#N (single isomer, unassigned) [Compound 17] | ** (<90% and >50%) | 
 | < 1000 nM | < 1000 nM |  | > 10000 nM | 50 to 90% |  |  |  |  |  |  |  | CCN(C)S(=O)(=O)Nc1ccc(F)c(Oc2ccc3ncn([C@@H]4CCC5(CCN(C6CCC(c7ccc(NC8CCC(=O)NC8=O)cc7F)CC6)CC5)C4)c(=O)c3c2)c1C#N (single isomer, unassigned) [Compound 22] |  | 50 to 90%
< 1000 nM | < 1000 nM | 1000 to 10000 nM | ** (<90% and >50%) |  |  |  |  |  |  |  |  |  | CCN(C)S(=O)(=O)Nc1ccc(F)c(Oc2ccc3ncn([C@H]4CCC5(CCN(C6CCC(c7ccc(NC8CCC(=O)NC8=O)cc7F)CC6)CC5)C4)c(=O)c3c2)c1C#N (single isomer, unassigned) [Compound 25] | ** (<90% and >50%) | 
1000 to 10000 nM | < 1000 nM | < 1000 nM |  |  |  | ** (<90% and >50%) |  |  |  |  |  |  | CCN(C)S(=O)(=O)Nc1ccc(F)c(Oc2ccc3ncn([C@@H]4CCC5(CCN(C6CCC(c7cc8c(cc7F)c(N7CCC(=O)NC7=O)nn8C)CC6)CC5)C4)c(=O)c3c2)c1C#N (single isomer, unassigned) [Compound 32] | *** (<=50%) | 
< 1000 nM | < 1000 nM | < 1000 nM | *** (<=50%) |  |  |  | < 1000 nM | < 1000 nM | *** (<=50%) | *** (<=50%) | < 1000 nM | < 1000 nM | CCN(C)S(=O)(=O)Nc1ccc(F)c(Oc2ccc3ncn([C@H]4COC5(CCN(C6CCC(c7cc8c(cc7F)c(N7CCC(=O)NC7=O)nn8C)CC6O)CC5)C4)c(=O)c3c2)c1C#N (single isomer, unassigned) [Compound 45] | *** (<=50%) | 
